Assay results reported in US8450319B2, “Pyrrolopyridazinone compound” (Ube Industries, Ltd., priority 2006, dated 2013).
Counter-ions that a name gives are not always drawn. Blank lines part the entries; values can stand above or below the compound they belong to.

Legend:
PDE4 = experiment: Measurement of PDE4 enzyme inhibiting action; format: biochemical, human; conditions: PDE4 enzyme solution from polymorphonuclear leukocytes of healthy volunteer; 0.2 μM [3H]cAMP, 30° C., 30 minutes; read-out: PDE4 inhibition IC50 value
Description: Preparation of a PDE4 enzyme solution was carried out according to the method of Cooper et al. (Br. J. Pharmacol., 126, 1863 (1999)) by modifying a part thereof. Heparin-treated peripheral blood from healthy volunteer was stratified by a blood cell separating solution (Polymorphprep™, available from AXIS-SHIELD PoC AS CO.), and centrifugation was carried out at 20° C. with 1900 rpm for 27 minutes to obtain polymorphonuclear leukocytes. The polymorphonuclear leukocytes were washed with a Hanks' balanced salt solution, then, a mixed solution comprising 70% of 10 mM 3-morpholinopropane sulfonic acid buffer solution (pH 7.4) containing 1 mM EGTA, 1 mM magnesium acetate and 5 mM dithiothreitol and 30% of ethylene glycol was added thereto to dissolve the same under ice-cooling, and the obtained cell dissolved solution was used as a PDE4 enzyme solution.
Measurement of PDE4 activity was carried out according to the method of Owens, et al. (Biochem. J., 326, 53 (1997)) by modifying a part thereof. The PDE4 enzyme solution was incubated with a compound to be tested dissolved in dimethylsulfoxide in 80 mM Tris-HCl buffer solution (pH 7.4) containing 0.2 μM [^3H] cAMP, 0.1 mM cGMP, 20 mM MgCl2 and 12 mM 2-mercaptoethanol at 30° C. for 30 minutes. Trifluoroacetic acid (final concentration: 1%) was added to the mixture to stop the reaction, and the reaction mixture was added to neutral alumina column (BOND ELUT™, available from VARIAN INC.). After the column was washed with 100 mM Tris-HCl buffer solution (pH 8.0), [^3H] 5′-AMP was eluted with 2N sodium hydroxide solution, and radioactivity of the eluent was measured by a liquid scintillation analyzer.
A concentration of the compound to be tested which inhibits 50% of PDE4 activity was calculated from the relation between the concentration of the compound to be tested which had been added and PDE4 activity as an IC50 value.

IC50 (PDE4): 5.2 nM
melting point: 267 to 270 °C (dec.)
Compound: O=c1[nH]ncc2[nH]c(-c3ccc(OC(F)F)c(OC4CC4)c3)c(Br)c12 [Example 3, 3-Bromo-2-(3-cyclopropoxy-4-difluoromethoxyphenyl)-1,5-dihydropyrrolo[2,3-d]pyridazin-4-one]

IC50 (PDE4): 4.7 nM
melting point: 248 to 249 °C
Compound: O=c1[nH]ncc2[nH]c(-c3ccc(OC(F)F)c(OC4CC4)c3)c(C3CC3)c12 [Example 14, 2-(3-Cyclopropoxy-4-difluoromethoxyphenyl)-3-cyclopropyl-1,5-dihydropyrrolo[2,3-d]pyridazin-4-one]

IC50 (PDE4): 6.6 nM
Compound: CCc1c(-c2ccc(OC(F)F)c(OCC3CC3)c2)[nH]c2cn[nH]c(=O)c12 [Example 37, 2-(3-Cyclopropylmethoxy-4-difluoromethoxyphenyl)-3-ethyl-1,5-dihydropyrrolo[2,3-d]pyridazin-4-one HCl adduct]

IC50 (PDE4): 2.6 nM
melting point: 198 to 200 °C
Compound: CCCCc1c(-c2ccc(OC)c(OC3CC3)c2)[nH]c2cn[nH]c(=O)c12 [Example 44, 3-Butyl-2-(3-cyclopropoxy-4-methoxyphenyl)-1,5-dihydropyrrolo[2,3-d]pyridazin-4-one]

IC50 (PDE4): 3.5 nM
melting point: 290 to 295 °C
Compound: O=c1[nH]ncc2[nH]c(-c3ccc(OC(F)F)c4c3CC3(CCCC3)O4)cc12 [Example 49, 2-(7-Difluoromethoxy-2,3-dihydrobenzofuran-2-spiro-1′-cyclopentan-4-yl)-1,5-dihydropyrrolo[2,3-d]pyridazin-4-one]

IC50 (PDE4): 16 nM
melting point: 265 °C (dec.)
Compound: COc1ccc(-c2cc3c(=O)[nH]ncc3[nH]2)c2c1OC1(CCCC1)C2 [Example 50, 2-(2,3-Dihydro-7-methoxybenzofuran-2-spiro-1′-cyclopentan-4-yl)-1,5-dihydropyrrolo[2,3-d]pyridazin-4-one]

IC50 (PDE4): 8 nM
melting point: 226 to 234 °C
Compound: CC1(C)C=Cc2c(-c3[nH]c4cn[nH]c(=O)c4c3Cl)ccc(OC(F)F)c2O1 [Example 52, 3-Chloro-2-(8-difluoromethoxy-2,2-dimethyl-2H-chromen-5-yl)-1,5-dihydropyrrolo[2,3-d]pyridazin-4-one]

IC50 (PDE4): 17 nM
Compound: Cc1c(-c2ccc(OC(F)F)c3c2C=CC(C)(C)O3)[nH]c2cn[nH]c(=O)c12 [Example 53, 2-(8-Difluoromethoxy-2,2-dimethyl-2H-chromen-5-yl)-3-methyl-1,5-dihydropyrrolo[2,3-d]pyridazin-4-one HCl adduct]

IC50 (PDE4): 11 nM
melting point: > 300 °C
Compound: O=c1[nH]ncc2[nH]c(-c3ccc(OC(F)F)c4c3C=CC3(CCCC3)O4)c(Cl)c12 [Example 57, 3-Chloro-2-(8-difluoromethoxy-2H-chromen-2-spiro-1′-cyclopentan-5-yl)-1,5-dihydropyrrolo[2,3-d]pyridazin-4-one]

IC50 (PDE4): 36 nM
melting point: 232 to 242 °C
Compound: O=c1[nH]ncc2[nH]c(-c3ccc(OC(F)F)c4c3C=CC(C3CC3)O4)cc12 (stereo not shown) [Example 58, 2-(2-Cyclopropyl-8-difluoromethoxy-2H-chromen-5-yl)-1,5-dihydropyrrolo[2,3-d]pyridazin-4-one]

Further lines, the compound ahead of its results:

Compound: CCCCc1c(-c2ccc(OC(F)F)c(OC3CC3)c2)[nH]c2cn[nH]c(=O)c12 [Example 8, 3-Butyl-2-(3-cyclopropoxy-4-difluoromethoxyphenyl)-1,5-dihydropyrrolo[2,3-d]pyridazin-4-one]
IC50 (PDE4): 1.7 nM
melting point: 192 to 194 °C

Compound: CC(C)Cc1c(-c2ccc(OC(F)F)c(OC3CC3)c2)[nH]c2cn[nH]c(=O)c12 [Example 9, 2-(3-Cyclopropoxy-4-difluoromethoxyphenyl)-3-isobutyl-1,5-dihydropyrrolo[2,3-d]pyridazin-4-one]
IC50 (PDE4): 1.8 nM
melting point: 239 to 241 °C

Compound: O=c1[nH]ncc2[nH]c(-c3ccc(OC(F)F)c(OC4CC4)c3)c(COC3CCC3)c12 [Example 13, 3-Cyclobutoxymethyl-2-(3-cyclopropoxy-4-difluoromethoxyphenyl)-1,5-dihydropyrrolo[2,3-d]pyridazin-4-one]
IC50 (PDE4): 0.65 nM
melting point: 95 to 100 °C

Compound: C#Cc1c(-c2ccc(OC(F)F)c(OC3CC3)c2)[nH]c2cn[nH]c(=O)c12 [Example 16, 2-(3-Cyclopropoxy-4-difluoromethoxyphenyl)-3-ethynyl-1,5-dihydropyrrolo[2,3-d]pyridazin-4-one]
IC50 (PDE4): 13 nM
melting point: > 300 °C

Compound: O=c1[nH]ncc2[nH]c(-c3ccc(OC(F)F)c(OC4CC4)c3)c(Cc3ccccc3)c12 [Example 19, 3-Benzyl-2-(3-cyclopropoxy-4-difluoromethoxyphenyl)-1,5-dihydropyrrolo[2,3-d]pyridazin-4-one]
IC50 (PDE4): 0.18 nM
melting point: 215 to 217 °C

Compound: O=c1[nH]ncc2[nH]c(-c3ccc(OC(F)F)c(OC4CC4)c3)c(C(O)c3ccccc3)c12 (stereo not shown) [Example 20, 2-(3-Cyclopropoxy-4-difluoromethoxyphenyl)-3-hydroxyphenylmethyl-1,5-dihydropyrrolo[2,3-d]pyridazin-4-one]
IC50 (PDE4): 0.23 nM

Compound: COc1ccc(Cc2c(-c3ccc(OC(F)F)c(OC4CC4)c3)[nH]c3cn[nH]c(=O)c23)cn1 [Example 29, 2-(3-Cyclopropoxy-4-difluoromethoxyphenyl)-3-(6-methoxy-3-pyridylmethyl)-1,5-dihydropyrrolo[2,3-d]pyridazin-4-one]
IC50 (PDE4): 0.57 nM
melting point: 220 to 221 °C

Compound: O=c1[nH]ncc2[nH]c(-c3ccc(OC(F)F)c(OC4CCC4)c3)cc12 [Example 31, 2-(3-Cyclobutoxy-4-difluoromethoxyphenyl)-1,5-dihydropyrrolo[2,3-d]pyridazin-4-one]
IC50 (PDE4): 9.1 nM
melting point: 289 to 291 °C

Compound: O=c1[nH]ncc2[nH]c(-c3ccc(OC(F)F)c(OC4CCC4)c3)c(Br)c12 [Example 33, 3-Bromo-2-(3-cyclobutoxy-4-difluoromethoxyphenyl)-1,5-dihydropyrrolo[2,3-d]pyridazin-4-one]
IC50 (PDE4): 1.8 nM
melting point: 234 to 238 °C

Compound: O=c1[nH]ncc2[nH]c(-c3ccc(OC(F)F)c(OC4CCC4)c3)c(-c3ccccc3)c12 [Example 34, 2-(3-Cyclobutoxy-4-difluoromethoxyphenyl)-3-phenyl-1,5-dihydropyrrolo[2,3-d]pyridazin-4-one]
IC50 (PDE4): 8.7 nM
melting point: 280 to 284 °C

Compound: O=c1[nH]ncc2[nH]c(-c3ccc(OC(F)F)c(OCC4CC4)c3)c(Cl)c12 [Example 36, 3-Chloro-2-(3-cyclopropylmethoxy-4-difluoromethoxyphenyl)-1,5-dihydropyrrolo[2,3-d]pyridazin-4-one]
IC50 (PDE4): 7.9 nM
melting point: 258 to 260 °C

Compound: O=c1[nH]ncc2[nH]c(-c3ccc(OC(F)F)c(OCC4CC4)c3)c(-c3ccccc3)c12 [Example 38, 2-(3-Cyclopropylmethoxy-4-difluoromethoxyphenyl)-3-phenyl-1,5-dihydropyrrolo[2,3-d]pyridazin-4-one]
IC50 (PDE4): 7.1 nM
melting point: 249 to 251 °C

Compound: CC(C)Oc1cc(-c2[nH]c3cn[nH]c(=O)c3c2Br)ccc1OC(F)F [Example 41, 3-Bromo-2-(4-difluoromethoxy-3-isopropoxyphenyl)-1,5-dihydropyrrolo[2,3-d]pyridazin-4-one]
IC50 (PDE4): 9.9 nM

Compound: CC(C)OCc1c(-c2ccc(OC(F)F)c(OC3CC3)c2)[nH]c2cn[nH]c(=O)c12 [Example 60, 2-(3-Cyclopropoxy-4-difluoromethoxyphenyl)-3-isopropoxymethyl-1,5-dihydropyrrolo[2,3-d]pyridazin-4-one]
IC50 (PDE4): 3 nM
melting point: 196 to 197 °C

Compound: CCOCCc1c(-c2ccc(OC(F)F)c(OC3CC3)c2)[nH]c2cn[nH]c(=O)c12 [Example 67, 2-(3-Cyclopropoxy-4-difluoromethoxyphenyl)-3-(2-ethoxyethyl)-1,5-dihydropyrrolo[2,3-d]pyridazin-4-one]
IC50 (PDE4): 1.4 nM
melting point: 201 to 203 °C

Compound: CCCCCCc1c(-c2ccc(OC(F)F)c(OC3CC3)c2)[nH]c2cn[nH]c(=O)c12 [Example 69, 2-(3-Cyclopropoxy-4-difluoromethoxyphenyl)-3-hexyl-1,5-dihydropyrrolo[2,3-d]pyridazin-4-one]
IC50 (PDE4): 0.38 nM
melting point: 186 to 188 °C

Compound: CC(C)C#CCc1c(-c2ccc(OC(F)F)c(OC3CC3)c2)[nH]c2cn[nH]c(=O)c12 [Example 73, 2-(3-cyclopropoxy-4-difluoromethoxyphenyl)-3-(4-methyl-2-pentynyl)-1,5-dihydropyrrolo[2,3-d]pyridazin-4-one]
IC50 (PDE4): 0.23 nM
melting point: 139 to 143 °C

Compound: C=CC(O)c1c(-c2ccc(OC(F)F)c(OC3CC3)c2)[nH]c2cn[nH]c(=O)c12 (stereo not shown) [Example 75, 2-(3-Cyclopropoxy-4-difluoromethoxyphenyl)-3-(1-hydroxy-2-propenyl)-1,5-dihydropyrrolo[2,3-d]pyridazin-4-one]
IC50 (PDE4): 1.5 nM
melting point: 202 to 203 °C
